Reference: US20240067651A1 (Biohaven Therapeutics Ltd., priority 2019, published 2024)
Read-outs that look alike come from different tables or passages of the source.

Tests used:
[1] = Plasma Stability; assay type: in vitro ADME, human
Summary of the method: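 Parent compound quantified by LC-MS/MS after acetonitrile precipitation, reported as percent of control remaining (triplicate). Incubation: 1 hour, 37° C, fresh human plasma, compound at 1 μM.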

[2] = system: Caco-2 monolayer; test: Caco-2 Permeability Assay; assay type: in vitro ADME, human
Summary of the method: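 Bidirectional transport at 37 °C for 90 min, 10 μM donor concentration, with or without Pgp inhibitor, across 21-day Caco-2 monolayers with TEER >600 […] in HEPES-buffered HBSS, pH 7.4. LC-MS/MS of donor and receiver samples gives Papp, B→A/A→B efflux ratio and mass recovery.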

[3] = Stability in Simulated Gastric Fluid (SGF); assay type: in vitro ADME; design: key: % parent compound remaining relative to 0-minute sample
Summary of the method: (§1)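 2 μg/mL final; SGF + pepsin pH 1.2 or SIF + pancreatin pH 6.8; 37° C, 150 rpm, 0–60 min. ACN quench with propranolol IS, LC-MS/MS. % parent vs 0 min; t1/2 from ln plot.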

[4] = Stability in Simulated Intestinal Fluid (SIF); assay type: in vitro ADME; design: key: % parent compound remaining relative to 0-minute sample
Summary of the method: as §1

[5] = simulated gastric fluid, remaining at 1 h
[6] = simulated intestinal fluid, remaining at 1 h
[7] = % remaining after 1 h in human plasma
[8] = % remaining after 1 h in simulated gastric fluid
[9] = % remaining after 1 h in simulated intestinal fluid

Compound | human Plasma stability ([1]; human plasma, remaining at 1 h) [% remaining] | Caco-2 Papp ([2]; Caco-2 monolayer) [×10⁻⁶ cm/s] | SGF [3, 5] [% remaining] | SIF [4, 6] [% remaining] | human Plasma stability [1, 7] [% remaining] | SGF [3, 8] [% remaining] | SIF [4, 9] [% remaining] | other results
CC(C)OCCn1c(=S)[nH]c(=O)c2c1ccn2C(=O)NCCOCCNC(=O)[C@H](NC(=O)OC(C)(C)C)C(C)C [Example 378, tert-butyl N-[(1R)-2-methyl-1-({2-[2-({4-oxo-1-[2-(propan-2-yloxy)ethyl]-2-sulfanylidene-1H,2H,3H,4H,5H-pyrrolo[3,2-d]pyrimidine-5-carbonyl}amino)ethoxy]ethyl}carba-moyl)propyl]carbamate] | 93 | 0.0903 |  |  |  |  |  | SGF ([3]; simulated gastric fluid, bare number, unit or time not given): 98; SIF ([4]; simulated intestinal fluid, bare number, unit or time not given): 96
CC(C)OCCn1c(SCOC(=O)N(C)CCOCCNC(=O)[C@H](N)C(C)C)nc(=O)c2[nH]ccc21.O=C(O)C(F)(F)F [Example 391, trifluoroacetic acid ({4-oxo-1-[2-(propan-2-yloxy)ethyl]-1H,4H,5H-pyrrolo[3,2-d]pyrimidin-2-yl}sulfanyl) methyl N-(2-{2-[(2R)-2-amino-3-methylbutanamido]ethoxy}ethyl)-N-methylcarbamate] | 1 | 3.65 | 96 | 70 |  |  |  | 
CC(C)OCCn1c(=S)n(COC(=O)OCCOCCOC(N)=O)c(=O)c2[nH]ccc21 [Example 403, 3-{[{{2-[2-(carbamoyloxy)ethoxy]ethoxy}car-bonyl)oxy]methyl}-1-[2-(propan-2-yloxy)ethyl]-2-sulfanylidene-1H,2H,3H,4H,5H-pyrrolo[3,2-d]pyrimidin-4-one] |  | 0.477 |  |  | 0 | 98 | 54 | 
(2R)-2-amino-4-(methylsulfanyl)-N-[2-(2-{[{{4-oxo-1-[2-(propan-2-yloxy)ethyl]-2-sulfanylidene-1H,2H,3H,4H,5H-pyrrolo[3,2-d]pyrimidin-5-yl}methoxy)carbonyl]oxy}ethoxy)eth-yl]butanamide; trifluoroacetic acid [Example 390] | 0 | 0.49 | 100 | 64 |  |  |  | 
(2R)-2-amino-4-methyl-N-[2-(2-{[{{4-oxo-1-[2-(propan-2-yloxy)ethyl]-2-sulfanylidene-1H,2H,3H,4H,5H-pyrrolo[3,2-d]pyrimidin-5-yl}methoxy)carbonyl]oxy}ethoxy)eth-yl]pentanamide; trifluoroacetic acid [Example 386] | 23 | 0.077 | 93 | 86 |  |  |  | 
(2R)-2-amino-N-[2-(2-{[{{4-oxo-1-[2-(propan-2-yloxy)ethyl]-2-sulfanylidene-1H,2H,3H,4H,5H-pyrrolo[3,2-d]pyrimidin-5-yl}methoxy)carbonyl]oxy}ethoxy)eth-yl]-3-phenylpropanamide; trifluoroacetic acid [Example 388] | 1 | <1.99 | 97 | 73 |  |  |  | 
(2R)-2-{[(tert-butoxy)carbonyl]amino}-4-methyl-N-[2-(2-{[{{4-oxo-1-[2-(propan-2-yloxy)ethyl]-2-sulfanylidene-1H,2H,3H,4H,5H-pyrrolo[3,2-d]pyrimidin-5-yl}methoxy)carbonyl]oxy}ethoxy)eth-yl]pentanamide [Example 385] | 1 | 3.87 | 94 | 84 |  |  |  | 
(2R)-2-{[(tert-butoxy)carbonyl]amino}-N-[2-(2-{[{{4-oxo-1-[2-(propan-2-yloxy)ethyl]-2-sulfanylidene-1H,2H,3H,4H,5H-pyrrolo[3,2-d]pyrimidin-5-yl}methoxy)carbonyl]oxy}ethoxy)eth-yl]-3-phenylpropanamide [Example 387] | 1 | 4.5 | 92 | 75 |  |  |  | 
bis (trifluoroacetic acid) 5-{[2-({[(5-{[(2S)-2-amino-4-methylpentanoyl]oxy}penta-noyl)oxy]methyl}sulfanyl)-4-oxo-1-[2-(propan-2-yloxy)ethyl]-1H,4H,5H-pyrrolo[3,2-d]pyrimidin-5-yl]methoxy}-5-oxopentyl (2S)-2-amino-4-methylpentanoate [Example 346] |  |  |  |  |  |  |  | human Plasma stability ([1]; % remaining @ 1 h): 98% remaining; Caco-2 Papp ([2]; Caco-2): <0.0623 ×10⁻⁶ cm/s; SGF ([3]; % remaining @ 1 h): 97% remaining; SIF ([4]; % remaining @ 1 h): 7% remaining
tert-butyl 3-(2-{[{{4-oxo-1-[2-(propan-2-yloxy)ethyl]-2-sulfanylidene-1H,2H,3H,4H,5H-pyrrolo[3,2-d]pyrimidin-5-yl}methoxy)carbonyl]oxy}eth-oxy)propanoate [Example 392] | 1 | 0.12 | 95 | 71 |  |  |  | 
tert-butyl N-[2-(2-{[(1-{4-oxo-1-[2-(propan-2-yloxy)ethyl]-2-sulfanylidene-1H,2H,3H,4H,5H-pyrrolo[3,2-d]pyrimidin-5-yl}ethoxy)carbonyl]amino}eth-oxy)ethyl]carbamate [Example 375] | 99 | <0.175 | 89 | 99 |  |  |  | 
tert-butyl N-[2-(2-{[{{4-oxo-1-[2-(propan-2-yloxy)ethyl]-2-sulfanylidene-1H,2H,3H,4H,5H-pyrrolo[3,2-d]pyrimidin-5-yl}methoxy)carbonyl]amino}ethoxy) ethyl]carbamate [Example 372] | 0 | 11.7 | 85 | 60 |  |  |  | 
trifluoroacetic acid ({4-oxo-1-[2-(propan-2-yloxy)ethyl]-1H,4H,5H-pyrrolo[3,2-d]pyrimidin-2-yl}sulfanyl)methyl N-[2-(2-aminoethoxy)ethyl]carbamate [Example 374] | 82 | 9.06 | 75 | 94 |  |  |  | 
trifluoroacetic acid {4-oxo-1-[2-(propan-2-yloxy)ethyl]-2-sulfanylidene-1H,2H,3H,4H,5H-pyrrolo[3,2-d]pyrimidin-5-yl}methyl (2R)-1-[2-(2-aminoacetamido)acetyl]pyrrolidine-2-carboxylate [Example 406] |  | 3.42 |  |  | 0 | 88 | 71 | 
trifluoroacetic acid {4-oxo-1-[2-(propan-2-yloxy)ethyl]-2-sulfanylidene-1H,2H,3H,4H,5H-pyrrolo[3,2-d]pyrimidin-5-yl}methyl N-[2-(2-aminoethoxy)ethyl]carbamate [Example 373] | 68 | 0.123 | 90 | 72 |  |  |  | 
{4-oxo-1-[2-(propan-2-yloxy)ethyl]-2-sulfanylidene-1H,2H,3H,4H,5H-pyrrolo [3,2-d]pyrimidin-5-yl}methyl 2-[(2S)-2-(benzoyloxy)-N,3-dimethylbutanamido]acetate [Example 401] |  | 0.43 |  |  | 0 | 90 | 8 | 
{4-oxo-1-[2-(propan-2-yloxy)ethyl]-2-sulfanylidene-1H,2H,3H,4H,5H-pyrrolo[3,2-d]pyrimidin-5-yl}methyl 2-[2-(2-{[(tert-butoxy)carbonyl]amino}acetamido)-N-methylacetamido]acetate [Example 407] |  | 14.6 |  |  | 0 | 98 | 1 | 
{4-oxo-1-[2-(propan-2-yloxy)ethyl]-2-sulfanylidene-1H,2H,3H,4H,5H-pyrrolo[3,2-d]pyrimidin-5-yl}methyl 2-[2-(acetyloxy)-N-methylacetamido]acetate [Example 400] |  | 0.242 |  |  | 89 | 99 | 26 | 
{4-oxo-1-[2-(propan-2-yloxy)ethyl]-2-sulfanylidene-1H,2H,3H,4H,5H-pyrrolo[3,2-d]pyrimidin-5-yl}methyl 2-{[(tert-butoxy)carbonyl](methyl)amino}acetate [Example 395] |  | 14.4 |  |  | 1 | 97 | 23 | 
{4-oxo-1-[2-(propan-2-yloxy)ethyl]-2-sulfanylidene-1H,2H,3H,4H,5H-pyrrolo[3,2-d]pyrimidin-5-yl}methyl (2R)-2-{[(tert-butoxy)carbonyl]amino}propanoate [Example 291] |  |  |  |  |  |  |  | human Plasma stability ([1]; % remaining @ 1 h): 0% @ 1 h; Caco-2 Papp [2]: 21.9 ×10⁻⁶ cm/s; SGF ([3]; % remaining @ 1 h): 66% @ 1 h; SIF ([4]; % remaining @ 1 h): 30% @ 1 h
